Data on 22 molecules can be found in US12528761B2, “Thyromimetics” (Autobahn Therapeutics, Inc., priority 2020, dated 2026).

As a reminder, the pEC50 is −log10 of the EC50, conventionally taken in molar units.

One assay deals with T1, TRβ (Homo sapiens, UniProt P10828).
T1 construct: expressed in transfected cells; host or cells: HEK293
T1 sequence (P10828 217-461 limits assumed): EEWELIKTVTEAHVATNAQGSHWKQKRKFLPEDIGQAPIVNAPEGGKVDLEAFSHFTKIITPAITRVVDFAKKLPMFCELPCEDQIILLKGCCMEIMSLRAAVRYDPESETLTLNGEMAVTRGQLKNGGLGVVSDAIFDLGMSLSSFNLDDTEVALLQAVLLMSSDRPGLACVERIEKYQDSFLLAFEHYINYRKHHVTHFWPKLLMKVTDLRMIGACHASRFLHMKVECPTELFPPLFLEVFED
Kind of assay: TR reporter-gene assay (Gal4 DBD hybrid, luciferase), TRβ. The class given is cell-based. The following applies: for pEC50: HEK293-derived reporter cells, 24 hr treatment, read-out: TRβ EC50; for T3-SI (selectivity index, EC50 (TRα)/EC50 (TRβ)): class symbols. The method, then: (§1) Compounds were tested for thyroid-hormone receptor activity using TR reporter-gene assays. Reporter cells used in the assays express a TR-receptor hybrid (either TRα or TRβ) in which the native N-terminal DNA binding domain (DBD) has been replaced with that of the yeast Gal4 DBD. The reporter gene, firefly luciferase, is functionally linked to the Gal4 upstream activation sequence (UAS). Both cell lines were derived from human embryonic kidney (HEK293).
(§2) Step 1: A suspension of reporter cells was prepared in cell recovery medium containing 10% charcoal-stripped FBS, and dispensed into assay plates. The plates were pre-incubated for 6 hours in a cell culture incubator (37° C./5% CO2/85% humidity).
(§3) These intermediate stocks were subsequently diluted directly into compound screening medium containing 10% charcoal-stripped FBS to generate “2×-concentration” treatment media (containing 0.2, 0.4 or 0.8% DMSO).
(§4) Step 3: At the end of the pre-incubation period, culture media were discarded from the assay plates, and all wells received 100 μl of compound screening medium. 100 μl of each of the previously prepared “2×-concentration” treatment media were dispensed into duplicate assay wells, thereby achieving the desired final treatment concentrations. The final concentration of DMSO in all assay wells was 0.1, 0.2 or 0.4%. Assay plates were incubated for 24 hr in a cell culture incubator (37° C./5% CO2/85% humidity).
(§5) Step 4: At the 24 h assay endpoint, treatment media were discarded and 100 µl/well of luciferase detection reagent was added. Relative luminometer units (RLUs) were quantified from each assay well.

In a further assay the target is T2, TRα (Homo sapiens, UniProt P10827).
T2 construct: expressed in transfected cells; host or cells: HEK293
T2 sequence (P10827 1-410 isoform P10827-2): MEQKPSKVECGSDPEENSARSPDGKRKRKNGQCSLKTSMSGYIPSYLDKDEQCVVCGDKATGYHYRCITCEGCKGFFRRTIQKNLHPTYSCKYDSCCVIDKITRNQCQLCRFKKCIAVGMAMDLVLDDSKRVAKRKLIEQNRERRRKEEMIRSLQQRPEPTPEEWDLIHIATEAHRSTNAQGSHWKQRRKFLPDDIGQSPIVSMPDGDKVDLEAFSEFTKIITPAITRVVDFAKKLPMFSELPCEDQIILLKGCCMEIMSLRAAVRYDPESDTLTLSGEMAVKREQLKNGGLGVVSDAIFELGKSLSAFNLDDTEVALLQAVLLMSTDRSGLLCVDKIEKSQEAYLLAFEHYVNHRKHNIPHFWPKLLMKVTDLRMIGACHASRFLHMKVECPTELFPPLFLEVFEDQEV
Kind of assay: TR reporter-gene assay (Gal4 DBD hybrid, luciferase), TRα. The class given is cell-based. The following applies: HEK293-derived reporter cells, 24 hr treatment; read-out: TRα EC50. The method, then:
as §1, §2, §3, §4, §5

pEC50: −log10 of the molar value. Bounds are passed on as bounds.

As to `CC(C)c1cc(Cc2c(Cl)cc(NCC(=O)O)c(F)c2Cl)ccc1O` [Compound 75, (3,5-dichloro-2-fluoro-4-(4-hydroxy-3-isopropylbenzyl)phenyl)glycine], at TRβ, the negative logarithm of the EC50 (pEC50) was 7.00 to 8.00 and the “T3-SI (selectivity index, EC50 (TRα)/EC50 (TRβ))” value is “++ (3× < T3-SI ≤ 30×)”. For the same molecule, the pEC50 on TRα was 7.00 to 8.00.

As to `CC(C)c1c(O)ccc(Cc2c(Cl)cc(NCC(=O)O)c(F)c2Cl)c1F` [Compound 78, (3,5-dichloro-2-fluoro-4-(2-fluoro-4-hydroxy-3-isopropylbenzyl)phenyl)glycine], on TRβ, the negative-log EC50 (pEC50) was greater than 8.00 and the “T3-SI (selectivity index, EC50 (TRα)/EC50 (TRβ))” value is “++ (3× < T3-SI ≤ 30×)”. Besides, the pEC50 on TRα was greater than 8.00.

Regarding `CC(C)c1cc(Cc2c(Cl)cc(OC(F)C(=O)O)cc2Cl)ccc1O` (stereo not drawn) [Compound 81, 2-(3,5-dichloro-4-(4-hydroxy-3-isopropylbenzyl)phenoxy)-2-fluoroacetic acid], at TRβ, the pEC50 is 6.00 to 7.00 and the “T3-SI (selectivity index, EC50 (TRα)/EC50 (TRβ))” value is “++ (3× < T3-SI ≤ 30×)”. In addition, on TRα, the pEC50 was 6.00 to 7.00.

On to `CC(C)c1cc(Cc2c(Cl)cc(OC(F)(F)C(=O)O)cc2Cl)ccc1O` [Compound 82, 2-(3,5-dichloro-4-(4-hydroxy-3-isopropylbenzyl)phenoxy)-2,2-difluoroacetic acid], for which, on TRβ, the pEC50 was 6.00 to 7.00 and the “T3-SI (selectivity index, EC50 (TRα)/EC50 (TRβ))” value was “++ (3× < T3-SI ≤ 30×)”. For the same molecule, the pEC50 on TRα was less than 6.00.

Take `CNC(=O)C(F)(F)Oc1cc(Cl)c(Cc2ccc(O)c(C(C)C)c2)c(Cl)c1` [Compound 84, 2-(3,5-dichloro-4-(4-hydroxy-3-isopropylbenzyl)phenoxy)-2,2-difluoro-N-methylacetamide]: at TRβ, the pEC50 is 6.00 to 7.00 and the “T3-SI (selectivity index, EC50 (TRα)/EC50 (TRβ))” value is “+ (T3-SI ≤ 3×)”. Besides, the pEC50 on TRα is 6.00 to 7.00.

Turning to `CC(C)c1cc(Cc2c(Cl)cc(/C=C/C(=O)O)cc2Cl)ccc1O` [Compound 86, (E)-3-(3,5-dichloro-4-(4-hydroxy-3-isopropylbenzyl)phenyl)acrylic acid], on TRβ, the pEC50 was 7.00 to 8.00 and the “T3-SI (selectivity index, EC50 (TRα)/EC50 (TRβ))” value was “+ (T3-SI ≤ 3×)”. For the same molecule, at TRα, the pEC50 was 7.00 to 8.00.

As for `CC(C)c1c(O)ccc(Cc2c(Cl)cc(/C=C/C(=O)O)cc2Cl)c1F` [Compound 88, (E)-3-(3,5-dichloro-4-(2-fluoro-4-hydroxy-3-isopropylbenzyl)phenyl)acrylic acid], on TRβ, the negative-log EC50 (pEC50) is greater than 8.00 and the “T3-SI (selectivity index, EC50 (TRα)/EC50 (TRβ))” value is “+ (T3-SI ≤ 3×)”. In addition, the pEC50 at TRα was greater than 8.00.

As to `CCOC(=O)/C(=C\c1cc(Cl)c(Cc2ccc(O)c(C(C)C)c2)c(Cl)c1)C(=O)O` [Compound 90, 3-(3,5-dichloro-4-(4-hydroxy-3-isopropylbenzyl)phenyl)-2-(ethoxycarbonyl)acrylic acid], on TRβ, the pEC50 was less than 6.00 and the “T3-SI (selectivity index, EC50 (TRα)/EC50 (TRβ))” value is “++ (3× < T3-SI ≤ 30×)”. Moreover, the pEC50 on TRα is less than 6.00.

In the case of `CC(C)c1cc(Cc2c(Cl)cc(SCC(=O)O)cc2Cl)ccc1O` [Compound 91, 2-((3,5-dichloro-4-(4-hydroxy-3-isopropylbenzyl)phenyl)thio)acetic acid], the pEC50 at TRβ and on TRα was 6.00 to 7.00 throughout. Further, the “T3-SI (selectivity index, EC50 (TRα)/EC50 (TRβ))” value on TRβ is “++ (3× < T3-SI ≤ 30×)”.

Take `CC(C)c1cc(Cc2c(Cl)cc([S+]([O-])CC(=O)O)cc2Cl)ccc1O` (stereo not drawn) [Compound 92, 2-((3,5-dichloro-4-(4-hydroxy-3-isopropylbenzyl)phenyl)sulfinyl)acetic acid]: at TRβ, the pEC50 is less than 6.00 and the “T3-SI (selectivity index, EC50 (TRα)/EC50 (TRβ))” value is “+++ (T3-SI > 30×)”. The pEC50 on TRα is less than 6.00.

As to `CC(C)c1cc(Cc2c(Cl)cc(S(=O)(=O)CC(=O)O)cc2Cl)ccc1O` [Compound 93, 2-((3,5-dichloro-4-(4-hydroxy-3-isopropylbenzyl)phenyl)sulfonyl)acetic acid], at TRβ, the pEC50 was less than 6.00 and the “T3-SI (selectivity index, EC50 (TRα)/EC50 (TRβ))” value was “++ (3× < T3-SI ≤ 30×)”. Moreover, the pEC50 on TRα was less than 6.00.

`CC(C)c1cc(Cc2c(Cl)cc(CSCC(=O)O)cc2Cl)ccc1O` [Compound 95, 2-((3,5-dichloro-4-(4-hydroxy-3-isopropylbenzyl)benzyl)thio)acetic acid]: the negative-log EC50 (pEC50) on TRβ is 6.00 to 7.00; on TRα it was 7.00 to 8.00. The “T3-SI (selectivity index, EC50 (TRα)/EC50 (TRβ))” value at TRβ was “++ (3× < T3-SI ≤ 30×)”.

Consider `CC(C)c1cc(Cc2c(Cl)cc(C[S+]([O-])CC(=O)O)cc2Cl)ccc1O` (stereo not drawn) [Compound 96, 2-((3,5-dichloro-4-(4-hydroxy-3-isopropylbenzyl)benzyl)sulfinyl)acetic acid], for which the negative-log EC50 (pEC50) at TRβ and on TRα was less than 6.00 throughout. For the same molecule, at TRβ, the “T3-SI (selectivity index, EC50 (TRα)/EC50 (TRβ))” value was “+ (T3-SI ≤ 3×)”.

Regarding `CC(C)c1cc(Cc2c(Cl)cc(CS(=O)(=O)CC(=O)O)cc2Cl)ccc1O` [Compound 97, 2-((3,5-dichloro-4-(4-hydroxy-3-isopropylbenzyl)benzyl)sulfonyl)acetic acid], at TRβ, the pEC50 was less than 6.00 and the “T3-SI (selectivity index, EC50 (TRα)/EC50 (TRβ))” value was “++ (3× < T3-SI ≤ 30×)”. The pEC50 on TRα is less than 6.00.

In the case of `CC(C)c1cc(Cc2c(Cl)cc(/C=C\C(=O)O)cc2Cl)ccc1O` [Compound 100, (Z)-3-(3,5-dichloro-4-(4-hydroxy-3-isopropylbenzyl)phenyl)acrylic acid], the pEC50 on TRβ is less than 6.00; on TRα it was 6.00 to 7.00. At TRβ, the “T3-SI (selectivity index, EC50 (TRα)/EC50 (TRβ))” value was “+ (T3-SI ≤ 3×)”.

Take `C/C(=C\c1cc(Cl)c(Cc2ccc(O)c(C(C)C)c2)c(Cl)c1)C(=O)O` [Compound 102, (E)-3-(3,5-dichloro-4-(4-hydroxy-3-isopropylbenzyl)phenyl)-2-methylacrylic acid]: on TRβ, the negative-log EC50 (pEC50) is 6.00 to 7.00 and the “T3-SI (selectivity index, EC50 (TRα)/EC50 (TRβ))” value is “++ (3× < T3-SI ≤ 30×)”. For the same molecule, on TRα, the pEC50 is 6.00 to 7.00.

For the molecule `CC(C)c1cc(Cc2c(Cl)cc(NCCC(=O)O)cc2Cl)ccc1O` [Compound 103, 3-((3,5-dichloro-4-(4-hydroxy-3-isopropylbenzyl)phenyl)amino)propanoic acid], the pEC50 on TRβ and at TRα was 7.00 to 8.00 throughout. Besides, on TRβ, the “T3-SI (selectivity index, EC50 (TRα)/EC50 (TRβ))” value is “++ (3× < T3-SI ≤ 30×)”.

With `CONC(=O)Cc1cc(Cl)c(Cc2ccc(O)c(C(C)C)c2F)c(Cl)c1` [Compound 104, 2-(3,5-dichloro-4-(2-fluoro-4-hydroxy-3-isopropylbenzyl)phenyl)-N-methoxyacetamide], at TRβ, the pEC50 was 6.00 to 7.00 and the “T3-SI (selectivity index, EC50 (TRα)/EC50 (TRβ))” value is “+++ (T3-SI > 30×)”. Besides, at TRα, the pEC50 was less than 6.00.

Consider `CONC(=O)CCc1cc(Cl)c(Cc2ccc(O)c(C(C)C)c2F)c(Cl)c1` [Compound 106, 3-(3,5-dichloro-4-(2-fluoro-4-hydroxy-3-isopropylbenzyl)phenyl)-N-methoxypropanamide], for which, at TRβ, the pEC50 is 7.00 to 8.00 and the “T3-SI (selectivity index, EC50 (TRα)/EC50 (TRβ))” value is “++ (3× < T3-SI ≤ 30×)”. In addition, the pEC50 at TRα was 7.00 to 8.00.

Regarding `CON(C)C(=O)CCc1cc(Cl)c(Cc2ccc(O)c(C(C)C)c2F)c(Cl)c1` [Compound 107, 3-(3,5-dichloro-4-(2-fluoro-4-hydroxy-3-isopropylbenzyl)phenyl)-N-methoxy-N-methylpropanamide], the pEC50 on TRβ and at TRα was 6.00 to 7.00 in each case. Moreover, the “T3-SI (selectivity index, EC50 (TRα)/EC50 (TRβ))” value on TRβ was “++ (3× < T3-SI ≤ 30×)”.

Take `CC(C)c1cc(Cc2c(Cl)cc(C=C(C(=O)O)C(=O)O)cc2Cl)ccc1O` [Compound 108, 2-(3,5-dichloro-4-(4-hydroxy-3-isopropylbenzyl)benzylidene)malonic acid]: at TRβ, the pEC50 is less than 6.00 and the “T3-SI (selectivity index, EC50 (TRα)/EC50 (TRβ))” value is “+ (T3-SI ≤ 3×)”. Moreover, the pEC50 at TRα is 6.00 to 7.00.

For the molecule `CC(C)c1c(O)ccc(Cc2c(Cl)cc(CNCC(=O)O)cc2Cl)c1F` [Compound 110, (3,5-dichloro-4-(2-fluoro-4-hydroxy-3-isopropylbenzyl)benzyl)glycine], at TRβ, the pEC50 was 6.00 to 7.00 and the “T3-SI (selectivity index, EC50 (TRα)/EC50 (TRβ))” value is “+ (T3-SI ≤ 3×)”. Further, at TRα, the pEC50 is 7.00 to 8.00.
